# Experimental data as given in ChEMBL document CHEMBL1201862, “PubChem BioAssay data set” (2004).
#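 Method: 48-hour compound exposure of cells in 96-well plates, five concentrations, linear interpolation of endpoints. GI50 is the concentration that inhibits growth by half.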 Active and inactive are the calls of the source. Cut-off read from the data, not from the text of the source: active = GI50 up to about 1.1 µM and inactive = higher.
# How the values were obtained:
# Test in all cases: NCI tumour cell line growth inhibition, 48 h
# [1] = tested on: NCI-H23
# [2] = tested on: SW-620
# [3] = tested on: HOP-62
# [4] = tested on: NCI-H226
# [5] = tested on: HT-29
# [6] = tested on: HOP-92
# [7] = tested on: M14
# [8] = tested on: UO-31
# [9] = tested on: OVCAR-3
# [10] = tested on: SF-268
# [11] = tested on: Malme-3M
# [12] = tested on: T47D
# [13] = tested on: Hs-578T
# [14] = tested on: NCI-H522
# [15] = tested on: DU-145
# [16] = tested on: A498
# [17] = tested on: MDA-MB-435
# [18] = tested on: MCF7
# [19] = tested on: MDA-N
SMILES,GI50 [1],GI50 [2],GI50 [3],GI50 [4],GI50 [5],GI50 [6],GI50 [7],GI50 [8],GI50 [9],GI50 [10],GI50 [11],GI50 [12],GI50 [13],GI50 [14],GI50 [15],GI50 [16],GI50 [17],GI50 [18],GI50 [19]
Cc1c2cc[n+](C)cc2c(C)c2c1[nH]c1ccc(Oc3ccccc3)cc12,0.53 µM (active),0.537 µM (active),0.518 µM (active),0.544 µM (active),0.843 µM (active),0.935 µM (active),4.37 µM (inactive),5.08 µM (inactive),1.14 µM (inactive),1.03 µM (active),1.71 µM (inactive),,,,,,,,
O=C(NC1(C(=O)NNc2nnc(-c3ccccc3)c(-c3ccccc3)n2)C(c2ccccc2)C(c2ccccc2)=NN1c1ccccc1)c1ccccc1 (stereo not given),> 100 µM (inactive),> 100 µM (inactive),> 100 µM (inactive),> 100 µM (inactive),> 100 µM (inactive),73.1 µM (inactive),> 100 µM (inactive),41.4 µM (inactive),> 100 µM (inactive),> 100 µM (inactive),64.1 µM (inactive),> 100 µM (inactive),> 100 µM (inactive),> 100 µM (inactive),> 100 µM (inactive),> 100 µM (inactive),> 100 µM (inactive),,
O=C1CCCC2=C1C(c1ccc3c(c1)OCO3)Nc1ccc3ccccc3c12 (stereo not given),> 100 µM (inactive),> 100 µM (inactive),> 100 µM (inactive),> 100 µM (inactive),> 100 µM (inactive),,> 100 µM (inactive),> 100 µM (inactive),> 100 µM (inactive),> 100 µM (inactive),> 100 µM (inactive),,41.3 µM (inactive),> 100 µM (inactive),> 100 µM (inactive),> 100 µM (inactive),> 100 µM (inactive),> 100 µM (inactive),87.1 µM (inactive)
[O-][S+](Nc1ccccc1)c1cccc(Cl)c1 (stereo not given),42.7 µM (inactive),> 100 µM (inactive),> 100 µM (inactive),> 100 µM (inactive),> 100 µM (inactive),,> 100 µM (inactive),60.4 µM (inactive),> 100 µM (inactive),44.1 µM (inactive),> 100 µM (inactive),,86.3 µM (inactive),57.3 µM (inactive),75 µM (inactive),,72.1 µM (inactive),> 100 µM (inactive),> 100 µM (inactive)
c1ccc(NC2(c3nnnn3C3CCCCC3)CCNCC2)cc1,23.8 µM (inactive),22.2 µM (inactive),15.9 µM (inactive),17.9 µM (inactive),16.7 µM (inactive),6.01 µM (inactive),17.6 µM (inactive),11.9 µM (inactive),,39.6 µM (inactive),17.1 µM (inactive),23.1 µM (inactive),14.1 µM (inactive),,37 µM (inactive),18 µM (inactive),19.4 µM (inactive),18.5 µM (inactive),
OCC(O)COCn1cc(Cn2ncc3c(SCc4ccccc4)ncnc32)nn1 (stereo not given),> 100 µM (inactive),> 100 µM (inactive),> 100 µM (inactive),> 100 µM (inactive),> 100 µM (inactive),> 100 µM (inactive),> 100 µM (inactive),> 100 µM (inactive),> 100 µM (inactive),51.4 µM (inactive),,> 100 µM (inactive),,27.2 µM (inactive),> 100 µM (inactive),> 100 µM (inactive),> 100 µM (inactive),> 100 µM (inactive),
N=C(N)Nc1ccc(CC(N)C(=O)NCC(=O)C(CC(=O)O)c2ncc(NC(=O)C(F)(F)F)o2)cc1 (stereo not given),> 25 µM (inactive),> 25 µM (inactive),> 25 µM (inactive),> 25 µM (inactive),> 25 µM (inactive),,> 25 µM (inactive),> 25 µM (inactive),> 25 µM (inactive),> 25 µM (inactive),> 25 µM (inactive),> 25 µM (inactive),> 25 µM (inactive),> 25 µM (inactive),> 25 µM (inactive),> 25 µM (inactive),> 25 µM (inactive),18.4 µM (inactive),
O=C(O)c1cnc2[nH]ccn2c1=O,> 100 µM (inactive),> 100 µM (inactive),> 100 µM (inactive),> 100 µM (inactive),> 100 µM (inactive),> 100 µM (inactive),> 100 µM (inactive),> 100 µM (inactive),> 100 µM (inactive),> 100 µM (inactive),> 100 µM (inactive),> 100 µM (inactive),,,> 100 µM (inactive),> 100 µM (inactive),> 100 µM (inactive),> 100 µM (inactive),> 100 µM (inactive)
CN(C)c1ccc(-c2c(C#N)c(S)n(NS(=O)(=O)c3ccccc3)c(=O)c2C#N)cc1,30.8 µM (inactive),38.9 µM (inactive),,,,25 µM (inactive),27.6 µM (inactive),25.5 µM (inactive),36.6 µM (inactive),,26.5 µM (inactive),,,14.7 µM (inactive),63.5 µM (inactive),22.3 µM (inactive),21.5 µM (inactive),24.2 µM (inactive),25 µM (inactive)
C[C@]12Cc3conc3C(O)=C1CC[C@@H]1C2CC[C@@]2(C)C1CC[C@@H]2O (stereo not given in full),18.1 µM (inactive),15.5 µM (inactive),50.4 µM (inactive),18 µM (inactive),19.7 µM (inactive),22.8 µM (inactive),12.4 µM (inactive),15.3 µM (inactive),6.22 µM (inactive),14.6 µM (inactive),9.4 µM (inactive),,,2.95 µM (inactive),,9.12 µM (inactive),,,
O=[N+]([O-])c1ccc2c(/N=N/c3c(O)ccc4ccccc34)c(O)cc(S(=O)(=O)O)c2c1,20.9 µM (inactive),13.8 µM (inactive),6.73 µM (inactive),17.5 µM (inactive),25.4 µM (inactive),16.6 µM (inactive),4.07 µM (inactive),2.45 µM (inactive),1.69 µM (inactive),7.31 µM (inactive),4.06 µM (inactive),,> 50 µM (inactive),4.76 µM (inactive),36.1 µM (inactive),,7.98 µM (inactive),49.9 µM (inactive),15.5 µM (inactive)
O=c1c2ccccc2nc(N/N=C/c2ccc(Cl)cc2)n1-c1ccccc1,> 100 µM (inactive),> 100 µM (inactive),38.1 µM (inactive),> 100 µM (inactive),> 100 µM (inactive),98.6 µM (inactive),> 100 µM (inactive),62.4 µM (inactive),> 100 µM (inactive),80.2 µM (inactive),> 100 µM (inactive),82.6 µM (inactive),,67 µM (inactive),> 100 µM (inactive),> 100 µM (inactive),> 100 µM (inactive),> 100 µM (inactive),50.8 µM (inactive)
Nc1nc(Nc2cc(F)c(Cl)c(F)c2)cc(=O)[nH]1,95.9 µM (inactive),91 µM (inactive),> 100 µM (inactive),> 100 µM (inactive),> 100 µM (inactive),77.3 µM (inactive),41.5 µM (inactive),,> 100 µM (inactive),74.5 µM (inactive),> 100 µM (inactive),77.6 µM (inactive),18.1 µM (inactive),28.4 µM (inactive),> 100 µM (inactive),94.8 µM (inactive),44.4 µM (inactive),75.9 µM (inactive),
O=C(/N=N/c1ccccc1Br)NNc1ccccc1Br,48.9 µM (inactive),67.1 µM (inactive),> 100 µM (inactive),> 100 µM (inactive),> 100 µM (inactive),,60.8 µM (inactive),38.9 µM (inactive),86.3 µM (inactive),> 100 µM (inactive),38.2 µM (inactive),13.7 µM (inactive),,40.6 µM (inactive),> 100 µM (inactive),58.7 µM (inactive),84.5 µM (inactive),,55.8 µM (inactive)
CC1CNC(NS(=O)(=O)c2cc(C(=O)Nc3ccc(Cl)cc3)c(Cl)cc2S)=NN1 (stereo not given),27.4 µM (inactive),34.1 µM (inactive),41.5 µM (inactive),27.5 µM (inactive),36.3 µM (inactive),,21.7 µM (inactive),49.7 µM (inactive),28.2 µM (inactive),11.5 µM (inactive),17.9 µM (inactive),,,28.2 µM (inactive),30.2 µM (inactive),18.1 µM (inactive),23.4 µM (inactive),45 µM (inactive),27.3 µM (inactive)
COc1ccc(-c2nc3ncccn3c2-c2ccc(S(C)(=O)=O)cc2)cc1,> 100 µM (inactive),> 100 µM (inactive),> 100 µM (inactive),,> 100 µM (inactive),14.1 µM (inactive),> 100 µM (inactive),> 100 µM (inactive),75.7 µM (inactive),35.2 µM (inactive),,,> 100 µM (inactive),,> 100 µM (inactive),,38 µM (inactive),22.3 µM (inactive),
O=C1NC(c2ccc3ccccc3c2)Nc2ccccc21 (stereo not given),24.5 µM (inactive),43.8 µM (inactive),41 µM (inactive),32.1 µM (inactive),24.8 µM (inactive),36.7 µM (inactive),35.9 µM (inactive),64.9 µM (inactive),,> 100 µM (inactive),,71.4 µM (inactive),57.4 µM (inactive),,49.5 µM (inactive),56 µM (inactive),3.12 µM (inactive),46.1 µM (inactive),
